Results from patent US20140308733A1, “METHOD FOR INDUCING GERMINATION OF SPORE FORMING BACTERIUM” (CALPIS CO., LTD., priority 2011, published 2014).

Columns and labels:
Assay in all cases: Germination induction, change of turbidity (630 nm) of spore suspension
Assay type in all cases: cell-based
[1] = system: Bacillus amyloliquefaciens (NBRC 3022); conditions: 300 ppm; for turbidity (630 nm): 37° C., 150 rpm; for germination confirmed by turbidity decrease: up to 180 min
Description: (§1) It is possible to determine whether spores have germinated, after measuring an OD 630 value (turbidity at 630 nm) of the liquid culture, based on decrease in the value (Literature: Microbiology, (1950), 4, 3, 330-338). Briefly, bacterial cells after culturing are washed with distilled water and diluted with distilled water to OD 630=1.0, which is then mixed with an equal volume of a germination induction solution, and the turbidity at 630 nm is measured by a UV spectrophotometer at room temperature.
(§2) TS culture media (Difco, Trypticase Soy Broth) were inoculated respectively with 11 strains listed in Table 1 and cultured at 50° C. with respect to Geobacillus stearothermophilus NBRC13737 and Aeribacillus pallidus TK6004 (FERM BP-08597), and at 37° C. with respect to the other 9 strains, until respective colonies were established. Then with respect to each of 11 strains, a loop full of a single colony was scratched by a platinum loop and suspended in 500 μL of sterilized water. In 1000 g of water was dissolved 8.0 g of a nutrient agar culture medium (Difco, Nutrient Broth), followed by high pressure steam sterilization (121° C., 15 min) to prepare a plate medium. The nutrient agar culture medium was smeared with each 100 μL of the suspension and cultured at 37° C. for 3 days.
(§3) Then, bacterial cells were suspended using a platinum loop in 500 μL of sterilized water, and the bacterial suspension was subjected to a heat shock at 65° C. for 35 min. Each 100 μL of the heat-shocked bacterial suspension and a not-heat-shocked bacterial suspension were smeared on the TS culture media respectively and cultured at 50° C. or 37° C. for 1 day. As the results of the cultures, colony formation was confirmed also with respect to the heat-shocked bacterial suspensions, to confirm that spores were formed for all of 11 strains. Further, since the bacteria were not stained by Gram staining, it was reconfirmed that spores were formed.
(§4) After confirming the spore formation, the bacterial cells were collected by a bacteria spreader, suspended in 10 mL of sterilized distilled water, and then centrifuged (8340×g, 4° C., 15 min). The supernatant was removed and thereafter the bacterial cells were washed twice with 10 mL of sterilized water. After washing, the bacterial cells were suspended in 5 mL of sterilized water, and the suspension was filtrated by sterilized Kimwipes. The filtrate was centrifuged (8340×g, 4° C., 15 min) to remove the supernatant, and the rest was adjusted to the turbidity (at 630 nm) of 1.0 with sterilized water.
(§5) After dissolving with stirring using a stirring rod with a propeller, filtration sterilization (0.45 μm filter) was conducted to prepare each 600 ppm-solution.
(§6) Five hundred (500) μL of each solution and 500 μL of each bacterial spore suspension were mixed. […] Defining the time point of mixing as the reaction initiation (0 min), and continuing shaking (150 rpm) at 37° C., the turbidity (630 nm) was measured at 10, 20, 30, 40, 50, 60, 90, 120, and 180 min after the reaction initiation.
(§7) Since the turbidity at 630 nm decreases by germination of spores, it has been known that the turbidity at 630 nm can be used to determine the germination rate.

[2] = system: Bacillus coagulans (NBRC 12583); conditions: 300 ppm; for turbidity (630 nm): 37° C., 150 rpm; for germination confirmed by turbidity decrease: up to 180 min
Description: as §1, §2, §3, §4, §5, §6, §7

[3] = system: Bacillus coagulans (NBRC 3887); conditions: 300 ppm; for turbidity (630 nm): 37° C., 150 rpm; for germination confirmed by turbidity decrease: up to 180 min
Description: as §1, §2, §3, §4, §5, §6, §7

[4] = system: Bacillus licheniformis (NBRC 12195); conditions: 300 ppm; for turbidity (630 nm): 37° C., 150 rpm; for germination confirmed by turbidity decrease: up to 180 min
Description: as §1, §2, §3, §4, §5, §6, §7

[5] = system: Bacillus subtilis C-3102 (FERM BP-1096); conditions: 300 ppm; for turbidity (630 nm): 37° C., 150 rpm; for germination confirmed by turbidity decrease: up to 180 min
Description: as §1, §2, §3, §4, §5, §6, §7

[6] = system: Bacillus subtilis sp spizizenii (NBRC 101239); conditions: 300 ppm; for turbidity (630 nm): 37° C., 150 rpm
Description: as §1, §2, §3, §4, §5, §6, §7

[7] = system: Geobacillus stearothermophilus (NBRC 13737); conditions: 300 ppm; for turbidity (630 nm): 37° C., 150 rpm; for germination confirmed by turbidity decrease: up to 180 min
Description: as §1, §2, §3, §4, §5, §6, §7

[8] = 0 min after reaction initiation
[9] = 10 min after reaction initiation
[10] = 20 min after reaction initiation
[11] = 30 min after reaction initiation
[12] = 40 min after reaction initiation
[13] = 50 min after reaction initiation
[14] = 60 min after reaction initiation
[15] = 90 min after reaction initiation
[16] = 120 min after reaction initiation
[17] = 180 min after reaction initiation

COc1cc(/C=C/C(=O)O)ccc1O [Ferulic acid, ferulic acid]
turbidity (630 nm) [1, 8]: 0.522 | turbidity (630 nm) [1, 9]: 0.447 | turbidity (630 nm) [1, 10]: 0.400 | turbidity (630 nm) [1, 11]: 0.328 | turbidity (630 nm) [1, 12]: 0.234 | turbidity (630 nm) [1, 13]: 0.192 | turbidity (630 nm) [1, 14]: 0.133 | turbidity (630 nm) [1, 15]: 0.094 | turbidity (630 nm) [1, 16]: 0.067 | turbidity (630 nm) [1, 17]: 0.030 | germination confirmed by turbidity decrease [1]: the turbidity decreased | turbidity (630 nm) [2, 8]: 0.558 | turbidity (630 nm) [2, 9]: 0.520 | turbidity (630 nm) [2, 10]: 0.518 | turbidity (630 nm) [2, 11]: 0.510 | turbidity (630 nm) [2, 12]: 0.460 | turbidity (630 nm) [2, 13]: 0.392 | turbidity (630 nm) [2, 14]: 0.350 | turbidity (630 nm) [2, 15]: 0.266 | turbidity (630 nm) [2, 16]: 0.217 | turbidity (630 nm) [2, 17]: 0.198 | germination confirmed by turbidity decrease [2]: the turbidity decreased | turbidity (630 nm) [3, 8]: 0.566 | turbidity (630 nm) [3, 9]: 0.531 | turbidity (630 nm) [3, 10]: 0.500 | turbidity (630 nm) [3, 11]: 0.454 | turbidity (630 nm) [3, 12]: 0.423 | turbidity (630 nm) [3, 13]: 0.372 | turbidity (630 nm) [3, 14]: 0.340 | turbidity (630 nm) [3, 15]: 0.300 | turbidity (630 nm) [3, 16]: 0.247 | turbidity (630 nm) [3, 17]: 0.209 | germination confirmed by turbidity decrease [3]: the turbidity decreased | turbidity (630 nm) [4, 8]: 0.541 | turbidity (630 nm) [4, 9]: 0.521 | turbidity (630 nm) [4, 10]: 0.502 | turbidity (630 nm) [4, 11]: 0.480 | turbidity (630 nm) [4, 12]: 0.449 | turbidity (630 nm) [4, 13]: 0.430 | turbidity (630 nm) [4, 14]: 0.392 | turbidity (630 nm) [4, 15]: 0.368 | turbidity (630 nm) [4, 16]: 0.324 | turbidity (630 nm) [4, 17]: 0.290 | germination confirmed by turbidity decrease [4]: the turbidity decreased | turbidity (630 nm) [5, 8]: 0.602 | turbidity (630 nm) [5, 9]: 0.578 | turbidity (630 nm) [5, 10]: 0.558 | turbidity (630 nm) [5, 11]: 0.548 | turbidity (630 nm) [5, 12]: 0.535 | turbidity (630 nm) [5, 13]: 0.506 | turbidity (630 nm) [5, 14]: 0.493 | turbidity (630 nm) [5, 15]: 0.471 | turbidity (630 nm) [5, 16]: 0.430 | turbidity (630 nm) [5, 17]: 0.335 | germination confirmed by turbidity decrease [5]: the turbidity decreased | turbidity (630 nm) [6, 8]: 0.534 | turbidity (630 nm) [6, 9]: 0.512 | turbidity (630 nm) [6, 10]: 0.495 | turbidity (630 nm) [6, 11]: 0.471 | turbidity (630 nm) [6, 12]: 0.458 | turbidity (630 nm) [6, 13]: 0.439 | turbidity (630 nm) [6, 14]: 0.414 | turbidity (630 nm) [6, 15]: 0.362 | turbidity (630 nm) [6, 16]: 0.306 | turbidity (630 nm) [6, 17]: 0.224 | germination confirmed by turbidity decrease ([6]; up to 180 min): germination was confirmed | turbidity (630 nm) [7, 8]: 0.560 | turbidity (630 nm) [7, 9]: 0.551 | turbidity (630 nm) [7, 10]: 0.537 | turbidity (630 nm) [7, 11]: 0.541 | turbidity (630 nm) [7, 12]: 0.489 | turbidity (630 nm) [7, 13]: 0.473 | turbidity (630 nm) [7, 14]: 0.459 | turbidity (630 nm) [7, 15]: 0.397 | turbidity (630 nm) [7, 16]: 0.326 | turbidity (630 nm) [7, 17]: 0.202 | germination confirmed by turbidity decrease [7]: the turbidity decreased

COc1cc(C(=O)O)ccc1O [Vanillic acid, vanillic acid]
turbidity (630 nm) [1, 8]: 0.548 | turbidity (630 nm) [1, 9]: 0.402 | turbidity (630 nm) [1, 10]: 0.295 | turbidity (630 nm) [1, 11]: 0.221 | turbidity (630 nm) [1, 12]: 0.150 | turbidity (630 nm) [1, 13]: 0.100 | turbidity (630 nm) [1, 14]: 0.076 | turbidity (630 nm) [1, 15]: 0.047 | turbidity (630 nm) [1, 16]: 0.021 | turbidity (630 nm) [1, 17]: 0.018 | germination confirmed by turbidity decrease [1]: the turbidity decreased | turbidity (630 nm) [2, 8]: 0.590 | turbidity (630 nm) [2, 9]: 0.528 | turbidity (630 nm) [2, 10]: 0.490 | turbidity (630 nm) [2, 11]: 0.430 | turbidity (630 nm) [2, 12]: 0.390 | turbidity (630 nm) [2, 13]: 0.335 | turbidity (630 nm) [2, 14]: 0.290 | turbidity (630 nm) [2, 15]: 0.225 | turbidity (630 nm) [2, 16]: 0.180 | turbidity (630 nm) [2, 17]: 0.137 | germination confirmed by turbidity decrease [2]: the turbidity decreased | turbidity (630 nm) [3, 8]: 0.559 | turbidity (630 nm) [3, 9]: 0.550 | turbidity (630 nm) [3, 10]: 0.473 | turbidity (630 nm) [3, 11]: 0.411 | turbidity (630 nm) [3, 12]: 0.364 | turbidity (630 nm) [3, 13]: 0.321 | turbidity (630 nm) [3, 14]: 0.295 | turbidity (630 nm) [3, 15]: 0.230 | turbidity (630 nm) [3, 16]: 0.182 | turbidity (630 nm) [3, 17]: 0.130 | germination confirmed by turbidity decrease [3]: the turbidity decreased | turbidity (630 nm) [4, 8]: 0.536 | turbidity (630 nm) [4, 9]: 0.513 | turbidity (630 nm) [4, 10]: 0.483 | turbidity (630 nm) [4, 11]: 0.438 | turbidity (630 nm) [4, 12]: 0.393 | turbidity (630 nm) [4, 13]: 0.324 | turbidity (630 nm) [4, 14]: 0.278 | turbidity (630 nm) [4, 15]: 0.196 | turbidity (630 nm) [4, 16]: 0.151 | turbidity (630 nm) [4, 17]: 0.092 | germination confirmed by turbidity decrease [4]: the turbidity decreased | turbidity (630 nm) [5, 8]: 0.604 | turbidity (630 nm) [5, 9]: 0.575 | turbidity (630 nm) [5, 10]: 0.551 | turbidity (630 nm) [5, 11]: 0.543 | turbidity (630 nm) [5, 12]: 0.505 | turbidity (630 nm) [5, 13]: 0.483 | turbidity (630 nm) [5, 14]: 0.461 | turbidity (630 nm) [5, 15]: 0.432 | turbidity (630 nm) [5, 16]: 0.390 | turbidity (630 nm) [5, 17]: 0.266 | germination confirmed by turbidity decrease [5]: the turbidity decreased | turbidity (630 nm) [6, 8]: 0.529 | turbidity (630 nm) [6, 9]: 0.520 | turbidity (630 nm) [6, 10]: 0.516 | turbidity (630 nm) [6, 11]: 0.512 | turbidity (630 nm) [6, 12]: 0.510 | turbidity (630 nm) [6, 13]: 0.510 | turbidity (630 nm) [6, 14]: 0.502 | turbidity (630 nm) [6, 15]: 0.488 | turbidity (630 nm) [6, 16]: 0.479 | turbidity (630 nm) [6, 17]: 0.474 | turbidity (630 nm) [7, 8]: 0.584 | turbidity (630 nm) [7, 9]: 0.590 | turbidity (630 nm) [7, 10]: 0.531 | turbidity (630 nm) [7, 11]: 0.510 | turbidity (630 nm) [7, 12]: 0.467 | turbidity (630 nm) [7, 13]: 0.445 | turbidity (630 nm) [7, 14]: 0.402 | turbidity (630 nm) [7, 15]: 0.291 | turbidity (630 nm) [7, 16]: 0.209 | turbidity (630 nm) [7, 17]: 0.099 | germination confirmed by turbidity decrease [7]: the turbidity decreased
